Several values for one entry are separate records, joined by “and”; a condition that tells them apart may be missing. Identical values can stand only once.

The target of one test is MERS-CoV S protein (Middle East respiratory syndrome-related coronavirus, UniProt K9N5Q8). Kind of test: cell-based. It is filed as cell-based.
Another test concerns live MERS-CoV. Conditions: 72 h.
The next test has as its system live HCoV-NL63. As to conditions: 1 h.
In another test the test system is live SARS-CoV-2. As to conditions: live, 72 h.
The next test deals with live HCoV-229E. Conditions: 1 h.
In the next test the test system is live HCoV-OC43. Conditions: 1 h.
Another test has as its target SARS-CoV-2 S protein (Severe acute respiratory syndrome coronavirus 2, UniProt P0DTC2). Kind of test: cell-based. The class given is cell-based.
For the next test, the system named is MERS-CoV PsV. Conditions: 72 h.
Another test relates to HCoV-NL63 PsV. As to conditions: 72 h.
The next test deals with HCoV-229E S protein (Human coronavirus 229E, UniProt P15423). Kind of test: cell-based. It is filed as cell-based.
A further test deals with Rs3367 PsV. As to conditions: 72 h.
A further test has as its system WIV1 PsV. As to conditions: 72 h.
A further test has as its target SARS-CoV S protein (Severe acute respiratory syndrome coronavirus, UniProt P59594). Kind of test: cell-based. The class given is cell-based.
Another test has as its target HCoV-NL63 S protein (Human coronavirus NL63, UniProt Q6Q1S2). Kind of test: cell-based. It is filed as cell-based.
Another test deals with HCoV-229E PsV. As to conditions: 72 h.
The next test deals with HCoV-OC43 PsV. Conditions: 72 h.
The subject of the next test is SARS-CoV-2 PsV. As to conditions: PsV, 72 h.
The next test addresses HCoV-OC43 S protein (Human coronavirus OC43, UniProt P36334). Kind of test: cell-based. It is filed as cell-based.
A further test deals with SARS-CoV PsV. Conditions: 72 h.
The next test has as its system Rs3367 S protein. It is filed as cell-based, SL-CoV Rs3367.
A further test concerns WIV1 S protein. The class given is cell-based, SL-CoV WIV1.
In another test the test system is SHC014 S protein. It is filed as cell-based, SL-CoV RsSHC014.

Chain of HCoV-229E S protein (P15423 16-1173 limits assumed): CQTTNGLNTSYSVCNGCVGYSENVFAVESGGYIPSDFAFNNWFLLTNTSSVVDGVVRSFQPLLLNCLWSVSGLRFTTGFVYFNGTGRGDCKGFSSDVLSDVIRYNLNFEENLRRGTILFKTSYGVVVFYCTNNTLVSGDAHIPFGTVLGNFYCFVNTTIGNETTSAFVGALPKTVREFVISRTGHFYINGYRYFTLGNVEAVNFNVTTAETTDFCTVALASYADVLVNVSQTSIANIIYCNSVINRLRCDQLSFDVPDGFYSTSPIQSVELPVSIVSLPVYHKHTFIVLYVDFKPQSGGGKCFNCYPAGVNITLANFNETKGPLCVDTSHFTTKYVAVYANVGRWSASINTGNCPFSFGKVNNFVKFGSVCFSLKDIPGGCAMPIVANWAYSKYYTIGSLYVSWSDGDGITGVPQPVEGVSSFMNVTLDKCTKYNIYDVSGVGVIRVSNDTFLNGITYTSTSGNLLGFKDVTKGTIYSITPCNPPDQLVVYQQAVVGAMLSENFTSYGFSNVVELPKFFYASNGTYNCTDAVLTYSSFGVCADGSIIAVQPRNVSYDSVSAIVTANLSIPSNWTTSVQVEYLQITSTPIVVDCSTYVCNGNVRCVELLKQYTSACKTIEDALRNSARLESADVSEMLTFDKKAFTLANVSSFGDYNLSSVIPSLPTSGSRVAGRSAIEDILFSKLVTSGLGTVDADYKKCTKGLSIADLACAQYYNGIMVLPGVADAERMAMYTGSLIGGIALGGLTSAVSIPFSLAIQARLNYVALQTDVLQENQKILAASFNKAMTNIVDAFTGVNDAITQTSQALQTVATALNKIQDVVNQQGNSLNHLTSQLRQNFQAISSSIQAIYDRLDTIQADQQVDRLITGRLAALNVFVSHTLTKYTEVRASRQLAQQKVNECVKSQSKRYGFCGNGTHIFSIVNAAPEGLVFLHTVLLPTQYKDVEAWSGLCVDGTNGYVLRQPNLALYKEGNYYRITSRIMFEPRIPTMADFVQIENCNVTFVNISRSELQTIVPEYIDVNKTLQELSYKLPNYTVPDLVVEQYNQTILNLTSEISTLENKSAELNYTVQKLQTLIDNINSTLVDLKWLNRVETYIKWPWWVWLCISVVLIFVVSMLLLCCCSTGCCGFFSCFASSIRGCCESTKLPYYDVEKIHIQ
Chain of HCoV-NL63 S protein (Q6Q1S2 19-1356 limits assumed): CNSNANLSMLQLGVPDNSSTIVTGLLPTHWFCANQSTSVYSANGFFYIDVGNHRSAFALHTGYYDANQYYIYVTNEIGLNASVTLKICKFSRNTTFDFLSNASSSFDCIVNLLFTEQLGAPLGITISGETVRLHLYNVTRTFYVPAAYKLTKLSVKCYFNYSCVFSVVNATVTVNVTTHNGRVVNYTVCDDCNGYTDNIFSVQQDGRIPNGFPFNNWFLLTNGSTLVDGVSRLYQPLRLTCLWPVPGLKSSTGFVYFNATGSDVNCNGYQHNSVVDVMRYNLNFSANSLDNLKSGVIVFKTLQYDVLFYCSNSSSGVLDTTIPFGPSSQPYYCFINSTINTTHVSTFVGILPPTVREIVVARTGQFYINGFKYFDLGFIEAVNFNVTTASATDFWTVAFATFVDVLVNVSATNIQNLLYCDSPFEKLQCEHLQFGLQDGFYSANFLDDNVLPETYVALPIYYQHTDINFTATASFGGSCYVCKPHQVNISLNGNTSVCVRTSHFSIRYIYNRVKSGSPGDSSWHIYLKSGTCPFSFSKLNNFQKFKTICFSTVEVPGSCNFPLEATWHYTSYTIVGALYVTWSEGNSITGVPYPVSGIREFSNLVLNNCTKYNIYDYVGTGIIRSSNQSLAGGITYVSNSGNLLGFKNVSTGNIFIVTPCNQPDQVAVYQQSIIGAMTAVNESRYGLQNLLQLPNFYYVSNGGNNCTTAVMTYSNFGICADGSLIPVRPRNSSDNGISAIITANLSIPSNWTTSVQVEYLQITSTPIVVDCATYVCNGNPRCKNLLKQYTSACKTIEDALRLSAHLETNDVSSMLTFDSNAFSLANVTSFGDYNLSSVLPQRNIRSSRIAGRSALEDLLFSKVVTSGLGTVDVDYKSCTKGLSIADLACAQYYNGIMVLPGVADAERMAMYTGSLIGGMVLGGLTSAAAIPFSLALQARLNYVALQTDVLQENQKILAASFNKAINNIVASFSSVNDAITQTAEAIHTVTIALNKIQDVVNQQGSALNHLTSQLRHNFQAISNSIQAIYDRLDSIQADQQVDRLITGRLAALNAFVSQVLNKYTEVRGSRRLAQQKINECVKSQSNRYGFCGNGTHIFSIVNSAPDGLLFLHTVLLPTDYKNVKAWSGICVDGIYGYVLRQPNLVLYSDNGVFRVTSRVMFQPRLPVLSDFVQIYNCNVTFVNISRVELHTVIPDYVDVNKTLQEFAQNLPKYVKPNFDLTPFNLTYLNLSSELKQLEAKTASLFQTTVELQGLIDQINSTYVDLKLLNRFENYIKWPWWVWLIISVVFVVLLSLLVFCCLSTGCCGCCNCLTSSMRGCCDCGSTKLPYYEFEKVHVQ
Chain of HCoV-OC43 S protein (P36334 14-1353 limits assumed): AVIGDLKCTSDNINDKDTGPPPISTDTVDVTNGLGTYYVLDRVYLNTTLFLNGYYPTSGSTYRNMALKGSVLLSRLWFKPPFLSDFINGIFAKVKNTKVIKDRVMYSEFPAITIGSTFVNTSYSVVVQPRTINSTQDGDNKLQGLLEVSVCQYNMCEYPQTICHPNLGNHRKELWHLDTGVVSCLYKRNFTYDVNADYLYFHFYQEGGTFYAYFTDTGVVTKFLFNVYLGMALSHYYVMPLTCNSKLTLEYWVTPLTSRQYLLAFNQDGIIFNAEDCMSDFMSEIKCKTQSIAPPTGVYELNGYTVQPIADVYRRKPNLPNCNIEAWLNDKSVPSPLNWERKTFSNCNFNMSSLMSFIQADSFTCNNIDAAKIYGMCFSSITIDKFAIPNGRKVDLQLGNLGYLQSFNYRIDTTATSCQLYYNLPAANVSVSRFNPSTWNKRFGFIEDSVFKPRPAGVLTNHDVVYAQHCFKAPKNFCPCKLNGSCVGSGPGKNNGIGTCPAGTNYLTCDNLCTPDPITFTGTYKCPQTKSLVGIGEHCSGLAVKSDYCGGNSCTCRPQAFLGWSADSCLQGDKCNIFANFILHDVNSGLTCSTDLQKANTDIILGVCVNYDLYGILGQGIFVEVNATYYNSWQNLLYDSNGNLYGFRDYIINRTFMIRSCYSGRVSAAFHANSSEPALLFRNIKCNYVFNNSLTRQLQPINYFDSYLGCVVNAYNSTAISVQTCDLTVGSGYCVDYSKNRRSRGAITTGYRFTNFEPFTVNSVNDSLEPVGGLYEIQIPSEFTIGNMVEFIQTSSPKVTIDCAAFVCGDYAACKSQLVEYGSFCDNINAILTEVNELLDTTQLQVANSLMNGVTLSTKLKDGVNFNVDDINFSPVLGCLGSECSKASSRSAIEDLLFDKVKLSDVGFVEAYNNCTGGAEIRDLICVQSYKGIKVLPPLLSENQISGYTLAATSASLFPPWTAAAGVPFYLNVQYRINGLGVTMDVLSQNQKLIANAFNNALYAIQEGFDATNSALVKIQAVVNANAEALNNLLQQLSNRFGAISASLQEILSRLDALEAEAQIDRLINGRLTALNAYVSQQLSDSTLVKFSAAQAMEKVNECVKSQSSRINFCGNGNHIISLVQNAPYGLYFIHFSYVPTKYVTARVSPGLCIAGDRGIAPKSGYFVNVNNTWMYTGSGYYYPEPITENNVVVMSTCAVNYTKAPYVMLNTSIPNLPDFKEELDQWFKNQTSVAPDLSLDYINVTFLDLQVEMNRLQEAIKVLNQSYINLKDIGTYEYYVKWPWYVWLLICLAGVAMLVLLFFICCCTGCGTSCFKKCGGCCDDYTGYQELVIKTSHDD

For the compound `CC[C@H](C)[C@H](NC(=O)[C@H](C)NC(=O)[C@H](CCC(=O)O)NC(=O)[C@H](CCC(=O)O)NC(=O)[C@H](CC(C)C)NC(=O)[C@H](CCCCN)NC(=O)[C@H](CCCCN)NC(=O)[C@H](CCSC)NC(=O)[C@H](CCC(=O)O)NC(=O)[C@H](Cc1ccc(O)cc1)NC(=O)[C@H](CCC(=O)O)NC(=O)[C@H](CC(C)C)NC(=O)[C@H](CC(=O)O)NC(=O)[C@H](CC(C)C)NC(=O)[C@H](Cc1ccccc1)NC(=O)[C@@H](NC(=O)[C@@H](NC(=O)[C@H](CC(N)=O)NC(=O)[C@@H](NC(=O)[C@H](CCC(N)=O)NC(=O)[C@H](CC(=O)O)NC(=O)[C@H](CC(C)C)NC(=O)[C@@H](N)CO)[C@@H](C)CC)C(C)C)[C@@H](C)O)C(=O)N[C@@H](CCCCN)C(=O)N[C@@H](CCCCN)C(=O)N[C@@H](CC(C)C)C(=O)N[C@@H](CCC(=O)O)C(=O)N[C@@H](CCC(=O)O)C(=O)N[C@@H](CO)C(=O)N[C@@H](Cc1ccc(O)cc1)C(=O)N[C@H](C(=O)N[C@@H](CC(=O)O)C(=O)N[C@@H](CC(C)C)C(=O)N[C@@H](CCCCN)C(=O)N[C@@H](CCC(=O)O)C(=O)N[C@@H](CC(C)C)C(=O)O)[C@@H](C)CC` [EK1], the IC50 on MERS-CoV S protein is 239 nM; in the test on live MERS-CoV, 802 nM; with live HCoV-NL63, 3.69 µM; in the test on live SARS-CoV-2 it was 2470 nM; in the test on live HCoV-229E, 4.38 µM; in the test on live HCoV-OC43 it was 1550 nM. The concentration for half-maximal inhibition (IC50) was 287 nM and 315 nM on SARS-CoV-2 S protein (IC50, SARS-CoV-2 S-mediated cell–cell fusion); 632 nM with MERS-CoV PsV; 7.67 µM with HCoV-NL63 PsV; 207 nM against HCoV-229E S protein; 6.01 µM in the test on Rs3367 PsV; 5.42 µM with WIV1 PsV. Moreover, the IC50 was 409 nM on SARS-CoV S protein; 751 nM at HCoV-NL63 S protein; 3.96 µM with HCoV-229E PsV; 1400 nM in the test on HCoV-OC43 PsV; 2380 nM in the test with SARS-CoV-2 PsV; 788 nM against HCoV-OC43 S protein. Also, inhibition in the test with SARS-CoV PsV was half-maximal at 3.24 µM (IC50).
In the case of `CC[C@H](C)[C@H](NC(=O)[C@H](C)NC(=O)[C@H](CCC(=O)O)NC(=O)[C@H](CCC(=O)O)NC(=O)[C@H](CC(C)C)NC(=O)[C@H](CCCCN)NC(=O)[C@H](CCCCN)NC(=O)[C@H](CCSC)NC(=O)[C@H](CCC(=O)O)NC(=O)[C@H](Cc1ccc(O)cc1)NC(=O)[C@H](CCC(=O)O)NC(=O)[C@H](CC(C)C)NC(=O)[C@H](CC(=O)O)NC(=O)[C@H](CC(C)C)NC(=O)[C@H](Cc1ccccc1)NC(=O)[C@@H](NC(=O)[C@@H](NC(=O)[C@H](CC(N)=O)NC(=O)[C@@H](NC(=O)[C@H](CCC(N)=O)NC(=O)[C@H](CC(=O)O)NC(=O)[C@H](CC(C)C)NC(=O)[C@@H](N)CO)[C@@H](C)CC)C(C)C)[C@@H](C)O)C(=O)N[C@@H](CCCCN)C(=O)N[C@@H](CCCCN)C(=O)N[C@@H](CC(C)C)C(=O)N[C@@H](CCC(=O)O)C(=O)N[C@@H](CCC(=O)O)C(=O)N[C@@H](CO)C(=O)N[C@@H](Cc1ccc(O)cc1)C(=O)N[C@H](C(=O)N[C@@H](CC(=O)O)C(=O)N[C@@H](CC(C)C)C(=O)N[C@@H](CCCCN)C(=O)N[C@@H](CCC(=O)O)C(=O)N[C@@H](CC(C)C)C(=O)NCC(=O)N[C@@H](CO)C(=O)NCC(=O)NCCOCCOCCOCCOCCC(=O)N[C@@H](CSCC(=O)O[C@H]1CC[C@@]2(C)C(=CC[C@H]3[C@@H]4CC[C@H]([C@H](C)CCCC(C)C)[C@@]4(C)CC[C@@H]32)C1)C(N)=O)[C@@H](C)CC` [EK1C3], the “Fold more potent than EK1C1, SARS-CoV-2 S-mediated cell–cell fusion” value at SARS-CoV-2 S protein was determined as 4 fold. In the test on SARS-CoV-2 PsV, it took 86.4 nM to reach half-maximal inhibition (IC50).
With “LKVLLYEEFKLLESLIMEILEYQKDSDIKENAEDTK [EK1-scrambled, reference compound]”, at MERS-CoV S protein, the “Inhibitory activity on MERS-CoV S-mediated cell–cell fusion” value is on record as “no inhibitory activity”. Moreover, the “Inhibitory activity on Rs3367 S-mediated cell–cell fusion” value in the test with Rs3367 S protein is recorded as “no inhibitory activity”. Further, in the test on WIV1 S protein, the “Inhibitory activity on WIV1 S-mediated cell–cell fusion” value is reported as “no inhibitory activity”. The “Inhibitory activity on SARS-CoV-2 S-mediated cell–cell fusion” value at SARS-CoV-2 S protein is “no inhibitory activity”. Also, the “Inhibitory activity on HCoV-229E S-mediated cell–cell fusion” value on HCoV-229E S protein is listed as “no inhibitory activity”. Further, the “Inhibitory activity on SARS-CoV S-mediated cell–cell fusion” value on SARS-CoV S protein is recorded as “no inhibitory activity”. In addition, the “Inhibitory activity on HCoV-NL63 S-mediated cell–cell fusion” value at HCoV-NL63 S protein is on record as “no inhibitory activity”. In addition, the “Inhibitory activity on SHC014 S-mediated cell–cell fusion” value with SHC014 S protein was “no inhibitory activity”. The “Inhibitory activity on HCoV-OC43 S-mediated cell–cell fusion” value on HCoV-OC43 S protein is “no inhibitory activity”.

For the origin of these results see publication PMC7104723 (Cell Research, 2020).
